Measured values as given in US20250313574A1, “SIALIC ACID DERIVATIVES AND METHODS OF USING SAME” (EISAI R&D MANAGEMENT CO., LTD., priority 2022, published 2025).

biological target: Recombinant human CD33 protein (Homo sapiens (Human), UniProt P20138); test: CD33 competitive binding assay for HTS drug screen (fluorescent multivalent sialic acid probe)
Method: This is a competitive binding assay that uses recombinant CD33 immobilized to a plate and a fluorescently-labeled multivalent sialic acid analog as a probe. Binding of drug to the site on CD33 to which sialic acid binds is detected by reduced binding of the fluorescent probe. Recombinant human CD33 protein (for example Acro Biosystems cat #CD3-H5257) was added at a concentration of 10 μg/ml in 20 mM acetate buffer (pH5.5) to a black plastic plate (Corning 4510) and allowed to incubate overnight at 4° C. The next day, the wells were washed 3 times with PBS containing 0.02% Tween-20. This was followed by a 30-minute incubation with PBS containing 0.2% Tween-20 and 0.5% BSA to block non-specific binding to the well. This buffer is removed and replaced with 10 μl of the same buffer, which is also used as the assay buffer. The fluorescent multivalent sialic acid probe was prepared as a 4× concentration as follows. A biotinylated sialic acid analog A-375 was mixed with biotin-4-Fluorescein isothiocyanate (biotin-4-FITC) at a 3:1 molar ratio with final concentrations (4× stock) of 60 μM A-375 and 20 μM biotin-4-FITC. After these were mixed, 20 μM of neutravidin was added, which should form complexes consisting of neutravidin, fluorescein and sialic acid with an average complex consisting of 1 neutravidin, 1 FITC and 3 sialic acid analogs. The multimerization of the sialic acid analog is critical to the assay and improves the affinity of the sialic acid analog several orders of magnitude. A test compound, for example A-001, is added at 5 μl to the 10 μl assay buffer already in the well. After a brief incubation, 5 μl of the 4× stock solution of sialic acid complexes was added. The final concentration of the complexes was therefore 5 μM neutravidin, 15 μM A-375 and 5 μM FITC. The plate was incubated at room temperature for 30 mins and then washed with PBS containing 0.2% Tween-20. Binding of the sialic acid complex is very stable, with an off-rate of several days. Bound complex was then detected using a standard plate reader to quantify FITC fluorescence.

Recombinant human CD33 protein, sequence (P20138 18-259): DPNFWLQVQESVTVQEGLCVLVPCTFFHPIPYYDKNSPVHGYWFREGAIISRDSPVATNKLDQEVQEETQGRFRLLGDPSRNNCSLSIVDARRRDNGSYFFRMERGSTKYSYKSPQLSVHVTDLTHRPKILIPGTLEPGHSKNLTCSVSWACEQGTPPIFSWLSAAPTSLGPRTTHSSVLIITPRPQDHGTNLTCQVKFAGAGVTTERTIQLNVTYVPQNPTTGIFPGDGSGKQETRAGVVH

Going from `Cc1cc(C(=O)NCC(O)C[C@@H]2O[C@@](C/C=C/C3CCN(C(=O)OC(C)(C)C)C3)(C(=O)O)CCC2C)cc(C)c1O` (single isomer, unassigned) [A-209] to `Cc1cc(C(=O)NCC(O)C[C@@H]2O[C@@](C/C=C/C3CCN(C(=O)OC(C)(C)C)C3)(C(=O)O)CCC2C)cc2cc[nH]c12` (single isomer, unassigned) [A-211], the EC50 falls from 44500 nM to 15200 nM (2.9-fold).

`Cc1cc(C(=O)NCC(O)C[C@@H]2O[C@@](C/C=C/C3CCN(C(=O)OC(C)(C)C)C3)(C(=O)O)CCC2C)cc(C)c1O` (single isomer, unassigned) [A-210] and `Cc1cc(C(=O)NCC(O)C[C@@H]2O[C@@](C/C=C/C3CCN(C(=O)OC(C)(C)C)C3)(C(=O)O)CCC2C)cc2cc[nH]c12` (single isomer, unassigned) [A-212] are within 1.5-fold of each other in EC50: 21400 nM for the first, 17400 nM for the second.

First: Cc1cc(C(=O)NCC(O)C[C@@H]2O[C@@](CCN3CCOC[C@@]34CCN(C(=O)OC(C)(C)C)C4)(C(=O)O)CCC2C)cc(C)c1O (single isomer, unassigned) [A-213]
Second: CC(=O)N[C@H]1[C@H]([C@H](O)[C@H](O)CNC(=O)c2cc(C)c(O)c(C)c2)O[C@@](CCN2CCOCC23CCN(C(=O)OC(C)(C)C)CC3)(C(=O)O)C[C@@H]1O [A-007]
The EC50 of the first is 22-fold higher: 17900 nM for the first, 811 nM for the second. The second is the more potent here.

First: Cc1cc(C(=O)NCC(O)C[C@@H]2O[C@@](CCN3CCOC[C@@]34CCN(C(=O)OC(C)(C)C)C4)(C(=O)O)CCC2C)cc(C)c1O (single isomer, unassigned) [A-214]
Second: CC(=O)N[C@H]1[C@H]([C@H](O)[C@H](O)CNC(=O)c2cc(C)c(O)c(C)c2)O[C@@](CCN2CCOCC23CN(C(=O)OC(C)(C)C)C3)(C(=O)O)C[C@@H]1O [A-008]
The EC50 of the first is 18-fold higher: 9800 nM for the first, 538 nM for the second.

Going from `Cc1cc(C(=O)NCC(O)C[C@@H]2O[C@@](CCN3CCOC[C@@]34CCN(C(=O)OC(C)(C)C)C4)(C(=O)O)CCC2C)cc(C)c1O` (single isomer, unassigned) [A-215] to `CC(=O)N[C@H]1[C@H]([C@H](O)[C@H](O)CNC(=O)c2cc(C)c(O)c(C)c2)O[C@@](CCN2CCC23CCN(C(=O)OC(C)(C)C)C3)(C(=O)O)C[C@@H]1O` (stereo partly shown) [A-018], the EC50 falls from 60400 nM to 162 nM (370-fold).

Compared with `CC(=O)N[C@H]1[C@H]([C@H](O)[C@H](O)CNC(=O)c2cc(C)c(O)c(C)c2)O[C@@](CCN2CCC[C@@]23CCN(C(=O)OC(C)(C)C)C3)(C(=O)O)C[C@@H]1O` [A-019], `CC(=O)N[C@H]1[C@H]([C@H](O)[C@H](O)CNC(=O)c2cc(C)c(O)c(C)c2)O[C@@](CCN2CCC[C@]23CCN(C(=O)OC(C)(C)C)C3)(C(=O)O)C[C@@H]1O` [A-020] is 17-fold higher in EC50: 28 nM for the first, 472 nM for the second. The first is the more potent here.

First: C=C(OC(C)(C)C)N1CC2(CCN2CC[C@]2(C(=O)O)C[C@H](O)[C@@H](NC(C)=O)[C@H]([C@H](O)[C@H](O)CNC(=O)c3cc(C)c(O)c(C)c3)O2)C1 [A-021]
Second: C=C(OC(C)(C)C)N1CCC2(CC1)CCN2CC[C@]1(C(=O)O)C[C@H](O)[C@@H](NC(C)=O)[C@H]([C@H](O)[C@H](O)CNC(=O)c2cc(C)c(O)c(C)c2)O1 [A-023]
The EC50 of the first is 5-fold higher: 887 nM for the first, 176 nM for the second.

First: CC(=O)N[C@H]1[C@H]([C@H](O)[C@H](O)CNC(=O)c2cc(C)c(O)c(C)c2)O[C@@](CCN2CCCCC23CCN(C(=O)OC(C)(C)C)C3)(C(=O)O)C[C@@H]1O (stereo partly shown) [A-022]
Second: CC(=O)N[C@H]1[C@H]([C@H](O)[C@H](O)CNC(=O)c2cc(C)c(O)c(C)c2)O[C@@](CCN2CCOC[C@@]23CCN(C(=O)CC(C)(C)C)C3)(C(=O)O)C[C@@H]1O [A-072]
The EC50 of the first is 13-fold higher: 2930 nM for the first, 230 nM for the second. The second is the more potent here.

`COC[C@@]1(NCC[C@]2(C(=O)O)C[C@H](O)[C@@H](NC(C)=O)[C@H]([C@H](O)[C@H](O)CNC(=O)c3cc(C)c(O)c(C)c3)O2)CCN(C(=O)OC(C)(C)C)C1` [A-030] and `COC[C@@]1(N(C)CC[C@]2(C(=O)O)C[C@H](O)[C@@H](NC(C)=O)[C@H]([C@H](O)[C@H](O)CNC(=O)c3cc(C)c(O)c(C)c3)O2)CCN(C(=O)OC(C)(C)C)C1` [A-031] are within 1.5-fold of each other in EC50: 49 nM for the first, 70 nM for the second.

Going from `CC(=O)N[C@H]1[C@H]([C@H](O)[C@H](O)CNC(=O)c2cc(C)c(O)c(C)c2)O[C@@](CCN2CCOC[C@@]23CCN(c2cc(C)ccn2)C3)(C(=O)O)C[C@@H]1O` [A-038] to `CC(=O)N[C@H]1[C@H]([C@H](O)[C@H](O)CNC(=O)c2cc(C)c(O)c(C)c2)O[C@@](CCN2CCOC[C@@]23CCN(c2cc(N(C)C)ccn2)C3)(C(=O)O)C[C@@H]1O` [A-041], the EC50 rises from 53 nM to 580 nM (11-fold). The first is the more potent here.

Compared with `CC(=O)N[C@H]1[C@H]([C@H](O)[C@H](O)CNC(=O)c2cc(C)c(O)c(C)c2)O[C@@](CCN2CCOC[C@@]23CCN(c2cc(C(F)(F)F)ccn2)C3)(C(=O)O)C[C@@H]1O` [A-039], `CC(=O)N[C@H]1[C@H]([C@H](O)[C@H](O)CNC(=O)c2cc(C)c(O)c(C)c2)O[C@@](CCN2CCOC[C@@]23CCN(C(=O)c2ccccn2)C3)(C(=O)O)C[C@@H]1O` [A-087] is 55-fold higher in EC50: 95 nM for the first, 5260 nM for the second. The first is the more potent here.

Compared with `C=C(C)c1ccc(C(C)(C)NC(=O)N2CC[C@@]3(COCCN3CC[C@]3(C(=O)O)C[C@H](O)[C@@H](NC(C)=O)[C@H]([C@H](O)[C@H](O)CNC(=O)c4cc(C)c(O)c(C)c4)O3)C2)cc1` [A-046], `CC(=O)N[C@H]1[C@H]([C@H](O)[C@H](O)CNC(=O)c2cc(C)c(O)c(C)c2)O[C@@](CCN2CCOC[C@@]23CCN(C(=O)NC(C)(C)c2ccccc2)C3)(C(=O)O)C[C@@H]1O` [A-055] is 3.9-fold higher in EC50: 63 nM for the first, 247 nM for the second.

Going from `CC(=O)N[C@H]1[C@H]([C@H](O)[C@H](O)CNC(=O)c2cc(C)c(O)c(C)c2)O[C@@](CCN2CCOC[C@@]23CCN(C(=O)NC(C)(C)C(C)C)C3)(C(=O)O)C[C@@H]1O` [A-050] to `COC(C)(C)C(=O)N1CC[C@@]2(COCCN2CC[C@]2(C(=O)O)C[C@H](O)[C@@H](NC(C)=O)[C@H]([C@H](O)[C@H](O)CNC(=O)c3cc(C)c(O)c(C)c3)O2)C1` [A-085], the EC50 rises from 20 nM to 1280 nM (64-fold).

`CC(=O)N[C@H]1[C@H]([C@H](O)[C@H](O)CNC(=O)c2cc(C)c(O)c(C)c2)O[C@@](CCN2CCOC[C@@]23CCN(C(=O)NC2(c4ccccc4)CC2)C3)(C(=O)O)C[C@@H]1O` [A-054] and `CC(=O)N[C@H]1[C@H]([C@H](O)[C@H](O)CNC(=O)c2cc(C)c(O)c(C)c2)O[C@@](CCN2CCOC[C@@]23CCN(C(=O)CC(C)c2ccccc2)C3)(C(=O)O)C[C@@H]1O` (stereo partly shown) [A-068] are within 1.5-fold of each other in EC50: 147 nM for the first, 101 nM for the second.

Compared with `CC(=O)N[C@H]1[C@H]([C@H](O)[C@H](O)CNC(=O)c2cc(C)c(O)c(C)c2)O[C@@](CCN2CCOC[C@@]23CCN(C(=O)N[C@H](C)c2ccc(Br)cc2)C3)(C(=O)O)C[C@@H]1O` [A-056], `COC(C)C(=O)N1CC[C@@]2(COCCN2CC[C@]2(C(=O)O)C[C@H](O)[C@@H](NC(C)=O)[C@H]([C@H](O)[C@H](O)CNC(=O)c3cc(C)c(O)c(C)c3)O2)C1` (stereo partly shown) [A-082] is higher in EC50: 153 nM for the first, greater than 5000 nM for the second. The first is the more potent here.

Compared with `CC(=O)N[C@H]1[C@H]([C@H](O)[C@H](O)CNC(=O)c2cc(C)c(O)c(C)c2)O[C@@](CCN2CCOC[C@@]23CCN(C(=O)C2CCCCC2)C3)(C(=O)O)C[C@@H]1O` [A-067], `CC(=O)N[C@H]1[C@H]([C@H](O)[C@H](O)CNC(=O)c2cc(C)c(O)c(C)c2)O[C@@](CCN2CCOC[C@@]23CCN(C(=O)C(C)C2CCCCC2)C3)(C(=O)O)C[C@@H]1O` (stereo partly shown) [A-076] is 3.6-fold higher in EC50: 63 nM for the first, 226 nM for the second.

`CC(=O)N[C@H]1[C@H]([C@H](O)[C@H](O)CNC(=O)c2cc(C)c(O)c(C)c2)O[C@@](CCN2CCOC[C@@]23CCN(C(=O)CC2CCOCC2)C3)(C(=O)O)C[C@@H]1O` [A-073] and `CC(=O)N[C@H]1[C@H]([C@H](O)[C@H](O)CNC(=O)c2cc(C)c(O)c(C)c2)O[C@@](CCN2CCOC[C@@]23CCN(C(=O)C2(C)CCCO2)C3)(C(=O)O)C[C@@H]1O` (stereo partly shown) [A-077] are within 1.5-fold of each other in EC50: 206 nM for the first, 283 nM for the second.

Going from `CC(=O)N[C@H]1[C@H]([C@H](O)[C@H](O)CNC(=O)c2cc(C)c(O)c(C)c2)O[C@@](CCN2CCOC[C@@]23CCN(C(=O)C2CCC(F)(F)C2)C3)(C(=O)O)C[C@@H]1O` (stereo partly shown) [A-074] to `CC(=O)N[C@H]1[C@H]([C@H](O)[C@H](O)CNC(=O)c2cc(C)c(O)c(C)c2)O[C@@](CCN2CCOC[C@@]23CCN(C(=O)C2CCC(F)(F)CC2)C3)(C(=O)O)C[C@@H]1O` [A-075], the EC50 falls from 263 nM to 99 nM (2.7-fold). The second is the more potent here.

Compared with `CC(=O)N[C@H]1[C@H]([C@H](O)[C@H](O)CNC(=O)c2cc(C)c(O)c(C)c2)O[C@@](CCN2CCOC[C@@]23CCN(C(=O)C(C)(C)Oc2ccccc2)C3)(C(=O)O)C[C@@H]1O` [A-081], `CC(=O)N[C@H]1[C@H]([C@H](O)[C@H](O)CNC(=O)c2cc(C)c(O)c(C)c2)O[C@@](CCN2CCOC[C@@]23CCN(C(=O)c2c(C)cccc2C)C3)(C(=O)O)C[C@@H]1O` [A-086] is higher in EC50: 1950 nM for the first, greater than 5000 nM for the second.

Compared with `CC(=O)N[C@H]1[C@H]([C@H](O)[C@H](O)CNC(=O)c2cc(C)c(O)c(C)c2)O[C@@](CCN2CCOC[C@@]23CCN(C(=O)COCC(C)C)C3)(C(=O)O)C[C@@H]1O` [A-083], `CC(=O)N[C@H]1[C@H]([C@H](O)[C@H](O)CNC(=O)c2cc(C)c(O)c(C)c2)O[C@@](CCN2CCOC[C@@]23CCN(C(=O)COC(C)C)C3)(C(=O)O)C[C@@H]1O` [A-084] is 1.6-fold higher in EC50: 1000 nM for the first, 1560 nM for the second.
